The target of assay [1] is T1, West Nile Virus (WNV) NS2B-NS3 protease (West Nile virus, UniProt Q9Q6P4).
T1 construct: NS2B1423-1470); purchased R&D 2907-SE-020
The assay is described as follows: WNV protease inhibition assay. The format is biochemical. The note with it: Table 4; letter codes for IC50. The source says:
WNV protease inhibition assay

In a further assay the test system is ZIKV replicon. Put plainly: ZIKV replication inhibition assay (NanoLuc replicon in Vero cells). As to conditions: 72 h.
Setting [2] is: Zika virus, Vero, read-out: ZIKA Cell_Nanoluc.
Setting [3] is: Zika virus, Vero, read-out: ZIKA Cell_Nanoluc, Vero cells with stable ZIKV replicon, 72 h, Nano-Glo readout.

Here are results for 24 compounds from patent publication EP4563146A1 (IRBM S.P.A., priority 2023, dated 2025).

Where two headings read alike, the source gives them in different places.

Broadly, the IC50 is the concentration at which inhibition is half-maximal. A high value points to a need for much substance.

T1 sequence (Q9Q6P4 1423-1470): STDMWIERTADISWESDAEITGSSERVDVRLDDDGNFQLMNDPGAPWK
T1 sequence (Q9Q6P4 1506-1689): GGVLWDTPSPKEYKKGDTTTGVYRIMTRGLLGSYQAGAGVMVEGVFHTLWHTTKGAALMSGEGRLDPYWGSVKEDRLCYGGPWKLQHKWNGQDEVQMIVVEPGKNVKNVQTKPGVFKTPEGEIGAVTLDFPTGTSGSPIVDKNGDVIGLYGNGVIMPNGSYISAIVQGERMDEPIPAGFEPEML

`CN(C)C[C@H]1CC[C@H]([n+]2cc([N-]C(=O)Nc3cc(NC(=O)[C@H](F)c4ccccc4F)cc(C(F)(F)F)c3)on2)CC1` (single isomer, unassigned) [Example 271] displayed an IC50 in assay [1] of less than 100 nM. Also, the EC50 in the assay with ZIKV replicon (setting [2]) lay within 100 to 1000 nM.
Turning to `Cc1ccccc1CC(=O)Nc1cc(NC(=O)[N-]c2c[n+](C3CCCC(CO)C3)no2)cc(C(F)(F)F)c1` (stereo not drawn) [Example 265, (3-(3-(Hydroxymethyl)cyclohexyl)-1,2,3-oxadiazol-3-ium-5-yl)((3-(2-(o-tolyl)acetamido)-5-(trifluoromethyl)phenyl)carbamoyl)amide], in assay [1], the IC50 lay within 100 to 1000 nM. The EC50 in the assay on ZIKV replicon (setting [3]) was 1000 to 20000 nM.
`Cc1ccccc1CC(=O)Nc1cc(NC(=O)[N-]c2c[n+]([C@@H]3CCCC[C@H]3O)no2)cc(C(F)(F)F)c1` [Example 203, (3-((1R,2R)-2-Hydroxycyclohexyl)-1,2,3-oxadiazol-3-ium-5-yl)((3-(2-(o-tolyl)acetamido)-5-(trifluoromethyl)phenyl)carbamoyl)amide] came in with a 50% inhibitory concentration (IC50) in assay [1] of 100 to 1000 nM. Besides, the EC50 in the assay on ZIKV replicon (setting [3]) fell in the range of 100 to 1000 nM.
Take `O=C([N-]c1c[n+](C[C@H]2CC[C@@H](c3cncnc3)CC2)no1)Nc1cccc(C(F)(F)F)c1` [Example 179, (3-(((1S,4S)-4-(Pyrimidin-5-yl)cyclohexyl)-methyl)-1,2,3-oxadiazol-3-ium-5-yl)((3-(trifluoromethyl)phenyl)carbamoyl)amide]: the IC50 in assay [1] is 1000 to 20000 nM. Further, the EC50 in the assay with ZIKV replicon (setting [2]) was in the range of 1000 to 20000 nM.
In assay [1], `Cc1ccccc1CC(=O)Nc1cc(NC(=O)[N-]c2c[n+]([C@H]3CC[C@H](C(=O)N4CCCC4)CC3)no2)cc(C(F)(F)F)c1` [Example 254, (3-((1R,4R)-4-(Pyrrolidine-1-carbonyl)-cyclohexyl)-1,2,3-oxadiazol-3-ium-5-yl)((3-(2-(o-tolyl)acetamido)-5-(trifluoromethyl)phenyl)-carbamoyl)amide] showed an IC50 of less than 100 nM. Besides, the EC50 with ZIKV replicon (setting [2]) was 1000 to 20000 nM.
For `CN(C)C[C@H]1CC[C@H]([n+]2cc([N-]C(=O)Nc3cc(NC(=O)Cc4ccccc4Cl)cc(C(F)(F)F)c3)on2)CC1` [Example 168, ((3-(2-(2-Chlorophenyl)acetamido)-5-(trifluoromethyl)phenyl)carbamoyl)(3-((1R,4R)-4-((dimethylamino)methyl)cyclohexyl)-1,2,3-oxadiazol-3-ium-5-yl)amide] the same measures were less than 100 nM and 100 to 1000 nM.
`CNC(=O)c1ccc(NC(=O)[N-]c2c[n+](Cc3ccc(-c4c(C)ncnc4C)cc3)no2)cc1C(F)(F)F` [Example 273, (3-(4-(4,6-Dimethylpyrimidin-5-yl)benzyl)-1,2,3-oxadiazol-3-ium-5-yl)((4-(methyl-carbamoyl)-3-(trifluoromethyl)phenyl)carbamoyl)amide]: in assay [1], the IC50 fell in the range of 100 to 1000 nM. For the same compound, the EC50 with ZIKV replicon (setting [3]) is 1000 to 20000 nM.
The corresponding values for `Cc1ncnc(C)c1C1=CCC(C[n+]2cc([N-]C(=O)Nc3ccnc(C(F)(F)F)c3)on2)CC1` (stereo not drawn) [Example 216, (3-((4-(4,6-Dimethylpyrimidin-5-yl)cyclohex-3-en-1-yl)methyl)-1,2,3-oxadiazol-3-ium-5-yl)((2-(trifluoromethyl)pyridin-4-yl)carbamoyl)amide] are 100 to 1000 nM and 1000 to 20000 nM.
With `CC(C(=O)Nc1cc(NC(=O)[N-]c2c[n+]([C@H]3CC[C@H](CN(C)C)CC3)no2)cc(C(F)(F)F)c1)c1ccccc1` (stereo partly drawn) [Example 164, (3-((1R,4R)-4-((Dimethylamino)methyl)-cyclohexyl)-1,2,3-oxadiazol-3-ium-5-yl)((3-(2-phenylpropanamido)-5-(trifluoromethyl)phenyl)-carbamoyl)amide], the IC50 in assay [1] was less than 100 nM. In addition, the EC50 in the assay on ZIKV replicon (setting [2]) is 100 to 1000 nM.
In assay [1], `Cc1ccccc1CC(=O)Nc1cc(NC(=O)[N-]c2c[n+]([C@@H]3CCCC(CO)C3)no2)cc(C(F)(F)F)c1` (stereo partly drawn) [Example 230, (3-((1R)-3-(Hydroxymethyl)cyclohexyl)-1,2,3-oxadiazol-3-ium-5-yl)((3-(2-(o-tolyl)acetamido)-5-(trifluoromethyl)phenyl)carbamoyl)amide] came in with an IC50 of less than 100 nM. Further, the EC50 in the assay on ZIKV replicon (setting [3]) fell in the range of 1000 to 20000 nM.
The corresponding values for `Cc1ccccc1CC(=O)Nc1cc(NC(=O)[N-]c2c[n+]([C@@H]3CCC[C@@H](O)C3)no2)cc(C(F)(F)F)c1` [Example 215, (3-((1R,3R)-3-Hydroxycyclohexyl)-1,2,3-oxadiazol-3-ium-5-yl)((3-(2-(o-tolyl)acetamido)-5-(trifluoromethyl)phenyl)carbamoyl)amide] are less than 100 nM and less than 100 nM.
`CN(C)C[C@H]1CC[C@H]([n+]2cc([N-]C(=O)Nc3cc(NC(=O)Cc4cccc(O)n4)cc(C(F)(F)F)c3)on2)CC1` [Example 196, (3-((1R,4R)-4-((Dimethylamino)methyl)-cyclohexyl)-1,2,3-oxadiazol-3-ium-5-yl)((3-(2-(6-hydroxypyridin-2-yl)acetamido)-5-(trifluoromethyl)phenyl)carbamoyl)amide] registered an IC50 in assay [1] of 1000 to 20000 nM. The EC50 in the assay with ZIKV replicon (setting [2]) fell in the range of 100 to 1000 nM.
`Cc1nn(C)cc1-c1ccc(C[n+]2cc([N-]C(=O)Nc3ccnc(C(F)(F)F)c3)on2)cc1` [Example 237, (3-(4-(1,3-Dimethyl-1H-pyrazol-4-yl)benzyl)-1,2,3-oxadiazol-3-ium-5-yl)((2-(trifluoromethyl)-pyridin-4-yl)carbamoyl)amide] displayed an IC50 in assay [1] of 100 to 1000 nM. The EC50 in the assay with ZIKV replicon (setting [3]) was 1000 to 20000 nM.
The corresponding values for `COC(=O)[C@@H]1CCC[C@@H]([n+]2cc([N-]C(=O)Nc3cc(NC(=O)Cc4ccccc4C)cc(C(F)(F)F)c3)on2)C1` [Example 224, (3-((1R,3R)-3-(Methoxycarbonyl)cyclohexyl)-1,2,3-oxadiazol-3-ium-5-yl)((3-(2-(o-tolyl)-acetamido)-5-(trifluoromethyl)phenyl)-carbamoyl)amide] are less than 100 nM and less than 100 nM.
In assay [1], `O=C([N-]c1c[n+]([C@H]2CCC[C@@H](c3cncnc3)C2)no1)Nc1ccnc(C(F)(F)F)c1` [Example 220, (3-((1S,3R)-3-(Pyrimidin-5-yl)cyclohexyl)-1,2,3-oxadiazol-3-ium-5-yl)((2-(trifluoromethyl)-pyridin-4-yl)carbamoyl)amide] gave an IC50 of 100 to 1000 nM. In addition, in the assay with ZIKV replicon (setting [3]), the EC50 was in the range of 100 to 1000 nM.
Regarding `Cc1ccccc1CC(=O)Nc1cc(NC(=O)[N-]c2c[n+]([C@@H]3CCC[C@H](O)C3)no2)cc(C(F)(F)F)c1` [Example 214, (3-((1R,3S)-3-Hydroxycyclohexyl)-1,2,3-oxadiazol-3-ium-5-yl)((3-(2-(o-tolyl)acetamido)-5-(trifluoromethyl)phenyl)carbamoyl)amide], in assay [1], the IC50 lay in the range of 100 to 1000 nM. Further, the EC50 in the assay on ZIKV replicon (setting [3]) is 1000 to 20000 nM.
The corresponding values for `COc1ncc(-c2ccc(C[n+]3cc([N-]C(=O)Nc4cc(NC(=O)Cc5ccccc5)cc(C(F)(F)F)c4)on3)cc2)c(C)n1` [Example 1, (3-(4-(2-Methoxy-4-methylpyrimidin-5-yl)benzyl)-1,2,3-oxadiazol-3-ium-5-yl)((3-(2-phenylacetamido)-5-(trifluoromethyl)phenyl)carbamoyl)amide] are 1000 to 20000 nM and 1000 to 20000 nM.
The corresponding values for `O=C([N-]c1c[n+]([C@H]2CCC[C@H](c3cncnc3)C2)no1)Nc1ccnc(C(F)(F)F)c1` [Example 219, (3-((1S,3S)-3-(Pyrimidin-5-yl)cyclohexyl)-1,2,3-oxadiazol-3-ium-5-yl)((2-(trifluoromethyl)pyridin-4-yl)carbamoyl)amide] are 100 to 1000 nM and 1000 to 20000 nM.
For `Cc1nn(C)c(C)c1-c1ccc(C[n+]2cc([N-]C(=O)Nc3ccnc(C(F)(F)F)c3)on2)cc1` [Example 268, ((2-(Trifluoromethyl)pyridin-4-yl)carbamoyl)(3-(4-(1,3,5-trimethyl-1H-pyrazol-4-yl)benzyl)-1,2,3-oxadiazol-3-ium-5-yl)amide] the same measures were less than 100 nM and less than 100 nM.
In assay [1], `CN(C)C[C@H]1CC[C@H]([n+]2cc([N-]C(=O)Nc3cc(NC(=O)Cc4c(F)cccc4Cl)cc(C(F)(F)F)c3)on2)CC1` [Example 198, ((3-(2-(2-Chloro-6-fluorophenyl)acetamido)-5-(trifluoromethyl)phenyl)carbamoyl)(3-((1R,4R)-4-((dimethylamino)methyl)cyclohexyl)-1,2,3-oxadiazol-3-ium-5-yl)amide] registered an IC50 of 1000 to 20000 nM. In addition, the EC50 in the assay with ZIKV replicon (setting [2]) was less than 100 nM.
As to `Cc1nnccc1-c1ccc(C[n+]2cc([N-]C(=O)Nc3ccnc(C(F)(F)F)c3)on2)cc1` [Example 188, (3-(4-(3-Methylpyridazin-4-yl)benzyl)-1,2,3-oxadiazol-3-ium-5-yl)((2-(trifluoromethyl)-pyridin-4-yl)carbamoyl)amide], the IC50 in assay [1] was less than 100 nM. In the assay with ZIKV replicon (setting [3]), the EC50 was less than 100 nM.
Compound `CN(C)C[C@H]1CC[C@H]([n+]2cc([N-]C(=O)Nc3cc(N(C)C(=O)Cc4ccccc4)cc(C(F)(F)F)c3)on2)CC1` [Example 172, (3-((1R,4R)-4-((Dimethylamino)methyl)-cyclohexyl)-1,2,3-oxadiazol-3-ium-5-yl)((3-(N-methyl-2-phenylacetamido)-5-(trifluoromethyl)-phenyl)carbamoyl)amide] returned an IC50 in assay [1] of 100 to 1000 nM. Further, the EC50 with ZIKV replicon (setting [2]) was 1000 to 20000 nM.
Compound `O=C([N-]c1c[n+](Cc2ccc(-c3cncnc3)cc2)no1)Nc1ccnc(C(F)(F)F)c1` [Example 236, (3-(4-(Pyrimidin-5-yl)benzyl)-1,2,3-oxadiazol-3-ium-5-yl)((2-(trifluoromethyl)pyridin-4-yl)-carbamoyl)amide] had an IC50 in assay [1] of 100 to 1000 nM. The EC50 in the assay on ZIKV replicon (setting [3]) is 100 to 1000 nM.
In assay [1], `CN(C)CC1CCC([n+]2cc([N-]C(=O)Nc3cc(NC(=O)Cc4ccccc4C(=O)O)cc(C(F)(F)F)c3)on2)CC1` [Example 159, ((3-(2-(2-Carboxyphenyl)acetamido)-5-(trifluoromethyl)phenyl)carbamoyl)(3-((1R,4R)-4-((dimethylamino)methyl)cyclohexyl)-1,2,3-oxadiazol-3-ium-5-yl)amide] displayed an IC50 of less than 100 nM. For the same compound, in the assay with ZIKV replicon (read-out: ZIKA Cell_Nanoluc, Vero cells with stable ZIKV replicon, Nano-Glo readout), the EC50 lay in the range of 1000 to 20000 nM.
